# In US7544675B2, “Chemical compounds with dual activity, processes for their preparation and pharmaceutical compositions” (UCB, S.A., priority 2002, dated 2009):
# Experiments:
# PDE IV = PDE IV enzymatic activity (SPA phosphodiesterase assay, cytosolic fraction from U937 cells); type: biochemical; settings: qualitative statement
# Procedure: Cytosolic fraction from U937 cells pre-stimulated for 4 h at 37° C. with a mixture of rolipram 30 μM and salbutamol 1 μM (Torphy T. J., Zhou H. L., Cieslinski L. B., J. Pharmacol. Exp. Ther. (1992), 263 (3), 1195-1205).
# Assays were performed in 100 μL of 50 mM Tris HCl buffer (pH 7.4) containing 5 mM MgCl2, 2 mM EGTA, 20 nM of [^3H]-cAMP (40-60 Ci/mmol), the cytosolic fraction of 50,000 U937 cells and the appropriate concentration of test compound (usually 10 μM) dissolved in DMSO (final assay concentration not exceeding 1%). After 30 min incubation at room temperature, 0.5 mg of SPA yttrium silicate beads are added to each sample. Radioactivity bound to the beads (5′-AMP) is determined by liquid scintillation. Non PDE IV activity and/or non specific binding of the labeled substrate to the SPA beads is defined as the residual radioactivity remaining in the presence of rolipram 32 μM (non PDE IV activity represents about 40% of total activity). PDE IV activity is determined by subtracting the non PDE TV activity from the total activity.
# [1] = molecular target: T1, human m3 muscarinic receptor (Homo sapiens, UniProt P20309); assay: Affinity for human muscarinic receptors ([3H]-NMS binding, CHO cell membranes); settings: qualitative statement
# T1 construct: expressed in transfected cells; host or cells: CHO (Chinese Hamster Ovarian) cells, crude membrane fraction
# Procedure: Chinese Hamster Ovarian cells (CHO) expressing the human recombinant m1, m2, m3, m4 and m5 receptors were cultured in Ham's F12 media supplemented with 100 IU/ml of penicillin, 100 μg/ml of streptomycin, 400 μg/ml of geneticin and 5% of fetal bovine serum. Cell cultures were maintained in a humidified incubator at 37° C. and 5% CO2.
# Confluent CHO cells expressing human m1, m2, m3, m4 and m5 muscarinic receptors were harvested and resuspended in phosphate buffered saline without calcium and magnesium. The cell suspension was centrifuged at 1500×g for 3 min (4° C.). The cell pellet was homogenized in a 15 mM Tris-HCl (pH 7.5) buffer containing 2 mM MgCl2, 0.3 mM EDTA and 1 mM EGTA. The crude membrane fraction was collected by two consecutive centrifugation steps at 40,000×g for 25 min (4° C.). The final pellet was resuspended, at a protein concentration ranging from 2 to 6 mg/ml, in a 7.5 mM Tris-HCl (pH 7.5) buffer containing 12.5 mM MgCl2, 0.3 mM EDTA, 1 mM EGTA and 250 mM sucrose and stored in liquid nitrogen.
# Binding assays were performed according to procedure described in: Buckley N. J., Bonner T. I., Buckley C. M., Brann M. R., Mol. Pharmacol. (1989), 35, 469-476, but with slight modifications.
# Briefly, 25 to 50 μg of membrane proteins were incubated at room temperature in 1 ml of a 50 mM Tris-HCl (pH 7.4) buffer containing 2 mM of MgCl2, 0.1 nM of [^3H]-NMS (N-methylscopolamine, 85 Ci/mmol, from Apbiotech, UK) and increasing concentrations of test compound dissolved in DMSO (1% final concentration). Non specific binding was measured in the presence of 1 μM atropine. After 60 (m2) or 120 (m3) min. incubation, assays were stopped by rapid vacuum filtration of the samples through glass fiber filters (Filtermat A, Wallac, Belgium) presoaked in 0.3% polyethyleneimine for at least 2 h. Samples were further rinsed with 8 ml of ice-cold 50 mM Tris-HCl (pH 7.4) buffer. Radioactivity trapped onto the filter was counted in a Betaplate counter (Wallac). Competition binding curves were analyzed by non-linear regression with XLfit software (UDBS, UK).
# T1 sequence (P20309 whole entry): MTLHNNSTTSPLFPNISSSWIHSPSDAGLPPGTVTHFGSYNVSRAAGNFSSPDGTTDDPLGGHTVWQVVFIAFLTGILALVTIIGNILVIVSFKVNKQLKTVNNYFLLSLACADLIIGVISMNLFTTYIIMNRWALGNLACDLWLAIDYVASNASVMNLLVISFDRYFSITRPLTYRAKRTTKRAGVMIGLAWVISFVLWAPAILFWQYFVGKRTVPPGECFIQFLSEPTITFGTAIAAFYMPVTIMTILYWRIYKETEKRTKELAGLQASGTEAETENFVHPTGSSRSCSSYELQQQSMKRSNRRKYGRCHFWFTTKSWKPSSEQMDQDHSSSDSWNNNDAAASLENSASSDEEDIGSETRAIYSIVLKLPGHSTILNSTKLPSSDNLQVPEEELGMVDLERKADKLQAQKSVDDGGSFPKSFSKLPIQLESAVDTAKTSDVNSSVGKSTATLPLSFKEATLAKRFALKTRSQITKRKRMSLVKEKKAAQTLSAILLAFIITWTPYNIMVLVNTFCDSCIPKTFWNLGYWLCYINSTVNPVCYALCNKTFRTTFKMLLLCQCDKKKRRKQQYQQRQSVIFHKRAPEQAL
smiles,measurement,setting,value
"Fc1c(NC2CC2)nc(C2CC2)nc1N1CCCCCC1 [Compound 60, 6-(1-azepanyl)-N,2-dicyclopropyl-5-fluoro-4-pyrimidinamine]",Dual high affinities: PDE IV part,PDE IV,high affinities
same,Dual high affinities: m3 receptor part,[1],high affinities
"Cc1c(NC2CC2)nc(C(C)C)nc1N1CCCCCC1 [Compound 64, 6-(1-azepanyl)-N-cyclopropyl-2-isopropyl-5-methyl-4-pyrimidinamine]",Dual high affinities: PDE IV part,PDE IV,high affinities
same,Dual high affinities: m3 receptor part,[1],high affinities
"Cc1c(NC2CC2)nc(C2CCCC2)nc1N1CCCCCC1 [Compound 154, 6-(1-azepanyl)-2-cyclopentyl-N-cyclopropyl-5-methyl-4-pyrimidinamine]",Dual high affinities: PDE IV part,PDE IV,high affinities
same,Dual high affinities: m3 receptor part,[1],high affinities
"Clc1c(NC2CC2)nc(C2CC2)nc1N1CCCCCC1 [Compound 59, 6-(1-azepanyl)-5-chloro-N,2-dicyclopropyl-4-pyrimidinamine]",Dual high affinities: PDE IV part,PDE IV,high affinities
same,Dual high affinities: m3 receptor part,[1],high affinities
"Cc1c(NC2CC2)nc(C2CC2)nc1N1CCC(F)(F)CC1 [Compound 78, N,2-dicyclopropyl-6-(4,4-difluoro-1-piperidinyl)-5-methyl-4-pyrimidinamine]",Dual high affinities: PDE IV part,PDE IV,high affinities
same,Dual high affinities: m3 receptor part,[1],high affinities
"Cc1c(NC2CC2)nc(C2CC2)nc1N1CCCCC1C (racemic) [Compound 177, N,2-dicyclopropyl-5-methyl-6-(2-methyl-1-piperidinyl)-4-pyrimidinamine]",Dual high affinities: PDE IV part,PDE IV,high affinities
same,Dual high affinities: m3 receptor part,[1],high affinities
"Cc1c(NC2CC2)nc(C2CC2C)nc1N1CCCCCC1 (racemic) [Compound 65, 6-(1-azepanyl)-N-cyclopropyl-5-methyl-2-(2-methylcyclopropyl)-4-pyrimidinamine]",Dual high affinities: PDE IV part,PDE IV,high affinities
same,Dual high affinities: m3 receptor part,[1],high affinities
"Brc1c(NC2CC2)nc(C2CC2)nc1N1CCCCCC1 [Compound 61, 6-azepan-1-yl-5-bromo-N,2-dicyclopropyl-4-pyrimidinamine]",Dual high affinities: PDE IV part,PDE IV,high affinities
same,Dual high affinities: m3 receptor part,[1],high affinities
"Nc1c(NC2CC2)nc(C2CC2)nc1N1CCCCCC1 [Compound 63, 6-(1-azepanyl)-N^4,2-dicyclopropyl-4,5-pyrimidinediamine]",Dual high affinities: PDE IV part,PDE IV,high affinities
same,Dual high affinities: m3 receptor part,[1],high affinities
"Cc1c(N2CCCCCC2)nc(C2CC2)nc1N1CC(O)C1 [Compound 189, 1-(6-azepan-1-yl-2-cyclopropyl-5-methylpyrimidin-4-yl)azetidin-3-ol]",Dual high affinities: PDE IV part,PDE IV,high affinities
same,Dual high affinities: m3 receptor part,[1],high affinities
"Cc1c(N2CCCCCC2)nc(C2CC2)nc1N1CC(F)C1 [Compound 194, 1-[2-cyclopropyl-6-(3-fluoroazetidin-1-yl)-5-methylpyrimidin-4-yl]azepane]",Dual high affinities: PDE IV part,PDE IV,high affinities
same,Dual high affinities: m3 receptor part,[1],high affinities
"C1CCCN(c2nc(C3CC3)nc3c2CCCCN3)CC1 [Compound 156, 4-azepan-1-yl-2-cyclopropyl-6,7,8,9-tetrahydro-pyrimido[4,5-b]azepine]",Dual high affinities: PDE IV part,PDE IV,high affinities
same,Dual high affinities: m3 receptor part,[1],high affinities
"Cc1c(NC2CC2)nc(C2CC2)nc1N1CCC(C)CC1 [Compound 95, N,2-dicyclopropyl-5-methyl-6-(4-methyl-1-piperidinyl)-4-pyrimidinamine]",Dual high affinities: PDE IV part,PDE IV,high affinities
same,Dual high affinities: m3 receptor part,[1],high affinities
"CCc1c(NC2CC2)nc(C2CC2)nc1N1CCC(C)CC1 [Compound 94, N,2-dicyclopropyl-5-ethyl-6-(4-methyl-1-piperidinyl)-4-pyrimidinamine]",Dual high affinities: PDE IV part,PDE IV,high affinities
same,Dual high affinities: m3 receptor part,[1],high affinities
"Cc1c(NC2CC2)nc(C2CCC2)nc1N1CCCCCC1 [Compound 55, 6-(1-azepanyl)-2-cyclobutyl-N-cyclopropyl-5-methyl-4-pyrimidinamine]",Dual high affinities: PDE IV part,PDE IV,high affinities
same,Dual high affinities: m3 receptor part,[1],high affinities
"Cc1c(NC2CC2)nc(C2CC2)nc1N1CC2CCC(C2)C1 [Compound 115, 6-(3-azabicyclo[3.2.1]oct-3-yl)-N,2-dicyclopropyl-5-methyl-4-pyrimidinamine]",Dual high affinities: PDE IV part,PDE IV,high affinities
same,Dual high affinities: m3 receptor part,[1],high affinities
"Cc1c(NC2CC2)nc(C2CC2)nc1N1CCCC1 [Compound 180, N,2-dicyclopropyl-5-methyl-6-(1-pyrrolidinyl)-4-pyrimidinamine]",Dual high affinities: PDE IV part,PDE IV,high affinities
same,Dual high affinities: m3 receptor part,[1],high affinities
"CC1CN(c2cc(N3CCCCCC3)nc(C3CC3)n2)C1 [Compound 191, 1-[2-cyclopropyl-6-(3-methylazetidin-1-yl)pyrimidin-4-yl]azepane]",Dual high affinities: PDE IV part,PDE IV,high affinities
same,Dual high affinities: m3 receptor part,[1],high affinities
"Cc1c(NC2CC2)nc(C2CC2)nc1N1CCSCC1 [Compound 119, N,2-dicyclopropyl-5-methyl-6-(4-thiomorpholinyl)-4-pyrimidinamine]",Dual high affinities: PDE IV part,PDE IV,high affinities
same,Dual high affinities: m3 receptor part,[1],high affinities
"Cc1c(NC2CC2)nc(C2CC2)nc1N1CCC(C)(C)CC1 [Compound 79, N,2-dicyclopropyl-6-(4,4-dimethyl-1-piperidinyl)-5-methyl-4-pyrimidinamine]",Dual high affinities: PDE IV part,PDE IV,high affinities
same,Dual high affinities: m3 receptor part,[1],high affinities
"Cc1c(NC2CC2)nc(C2CC2)nc1N1CCCCCCC1 [Compound 72, 6-(1-azocanyl)-N,2-dicyclopropyl-5-methyl-4-pyrimidinamine]",Dual high affinities: PDE IV part,PDE IV,high affinities
same,Dual high affinities: m3 receptor part,[1],high affinities
"Cc1c(NC2CC2)nc(C2CC2)nc1N1CCCCCC1 [Compound 56, 6-(1-azepanyl)-N,2-dicyclopropyl-5-methyl-4-pyrimidinamine]",Dual high affinities: PDE IV part,PDE IV,high affinities
same,Dual high affinities: m3 receptor part,[1],high affinities
"Cc1c(NC2CC2)nc(C2CC2)nc1N1CC2CCC(CC2)C1 [Compound 176, 6-(3-azabicyclo[3.2.2]non-3-yl)-N,2-dicyclopropyl-5-methyl-4-pyrimidinamine]",Dual high affinities: PDE IV part,PDE IV,high affinities
same,Dual high affinities: m3 receptor part,[1],high affinities
"C=C1CCN(c2nc(C3CC3)nc(NC3CC3)c2C)CC1 [Compound 106, N,2-dicyclopropyl-5-methyl-6-(4-methylene-1-piperidinyl)-4-pyrimidinamine]",Dual high affinities: PDE IV part,PDE IV,high affinities
same,Dual high affinities: m3 receptor part,[1],high affinities
"Cc1c(N2CCCCCC2)nc(C2CC2)nc1N1CC(C)C1 [Compound 185, 1-[2-cyclopropyl-5-methyl-6-(3-methylazetidin-1-yl)pyrimidin-4-yl]azepane]",Dual high affinities: PDE IV part,PDE IV,high affinities
same,Dual high affinities: m3 receptor part,[1],high affinities
"Cc1c(NC2CC2)nc(C2CC2)nc1N1CCCCC1 [Compound 175, N,2-dicyclopropyl-5-methyl-6-(1-piperidinyl)-4-pyrimidinamine]",Dual high affinities: PDE IV part,PDE IV,high affinities
same,Dual high affinities: m3 receptor part,[1],high affinities
